In patent publication US7109294B2, “Bacterial glycosyltransferase polypeptides involved in antibiotic resistance” (priority 2001, dated 2006):

Legend:
Assay type in all cases: cell-based, Pseudomonas aeruginosa
[1] = test system: P. aeruginosa PA14 wild type biofilm grown cells
[2] = test system: P. aeruginosa PA14 wild type planktonic cells; assay: microbe, parasite or virus in culture; settings: for MBC: Pseudomonas aeruginosa, PA14, 24 h, read-out: MBC-P, MBC of planktonically grown cells
[3] = test system: 45E7 mutant planktonic cells; assay: microbe, parasite or virus in culture; settings: for MBC: Pseudomonas aeruginosa, read-out: MBC-P, MBC of planktonically grown cells
[4] = test system: 30B1 mutant (PA1874 transposon insertion) biofilm grown cells
[5] = test system: 45E7 mutant (PA1163 transposon insertion) biofilm grown cells
[6] = test system: 30B1 mutant planktonic cells; assay: microbe, parasite or virus in culture; settings: for MBC: Pseudomonas aeruginosa, read-out: MBC-P, MBC of planktonically grown cells
[7] = test system: wild type colony biofilm
[8] = test system: wild type flow cell biofilm

| Compound | MBC-B, MBC of biofilm grown cells [1] | MBC [2] | MBC [3] | MBC-B, MBC of biofilm grown cells [4] | MBC of biofilm grown 45E7 lower compared to the wt [5] | MBC-B, MBC of biofilm grown cells [5] | MBC [6] | drop of viability in colony biofilm [7] | decrease of planktonic MBC relative to the biofilm-grown bacteria [2] | live versus dead cells in Tb-treated biofilm (BacLight) [8] | MBC-P, MBC of planktonically grown cells [2] | MBC-P, MBC of planktonically grown cells [3] | MBC-P, MBC of planktonically grown cells [6] |
| --- | --- | --- | --- | --- | --- | --- | --- | --- | --- | --- | --- | --- | --- |
| O=C(O)c1cn(C2CC2)c2cc(N3CCNCC3)c(F)cc2c1=O [Cip, ciprofloxacin] | 50 µg/mL | 4 µg/mL | 4 µg/mL | 12.5 µg/mL | 8 fold | 6 µg/mL | 4 µg/mL | – | – | – | – | – | – |
| NC[C@H]1O[C@H](O[C@H]2[C@H](O)[C@@H](O[C@H]3O[C@H](CO)[C@@H](O)[C@H](N)[C@H]3O)[C@H](N)C[C@@H]2N)[C@H](N)C[C@@H]1O [Tb, tobramycin] | 400 µg/mL | 8 µg/mL | 8 µg/mL | 100 µg/mL | 16 fold | 25 µg/mL | 8 µg/mL | ~100 fold | 50 fold | more live than dead cells | – | – | – |
| gentamycin [Gm] | 500 µg/mL | – | – | 250 µg/mL | 8 fold | 60 µg/mL | – | – | – | – | 40 µg/mL | 40 µg/mL | 40 µg/mL |
